Results as given in patent publication US12661410B2, “Compounds for targeted degradation of RET” (C4 Therapeutics, Inc., priority 2020, dated 2026).
Changes are numbered by the printed parent chain. Counter-ions that a name gives are not always drawn. Like-named read-outs stand apart in the source and are kept apart here.

Experiments:
[1] = molecular target: T1, RET (658-1114) (Homo sapiens, UniProt P07949); assay: HiBiT-Degradation, RET wild-type degradation assay (Nano-Glo HiBiT Lytic), 293T.144 cells; type: cell-based; conditions: for DC50 / Emax: 6.0 hours
T1 construct: 658-1114; expressed in transfected cells; host or cells: 293T.144 (293T cells, generated in-house)
T1 sequence (P07949 658-1114): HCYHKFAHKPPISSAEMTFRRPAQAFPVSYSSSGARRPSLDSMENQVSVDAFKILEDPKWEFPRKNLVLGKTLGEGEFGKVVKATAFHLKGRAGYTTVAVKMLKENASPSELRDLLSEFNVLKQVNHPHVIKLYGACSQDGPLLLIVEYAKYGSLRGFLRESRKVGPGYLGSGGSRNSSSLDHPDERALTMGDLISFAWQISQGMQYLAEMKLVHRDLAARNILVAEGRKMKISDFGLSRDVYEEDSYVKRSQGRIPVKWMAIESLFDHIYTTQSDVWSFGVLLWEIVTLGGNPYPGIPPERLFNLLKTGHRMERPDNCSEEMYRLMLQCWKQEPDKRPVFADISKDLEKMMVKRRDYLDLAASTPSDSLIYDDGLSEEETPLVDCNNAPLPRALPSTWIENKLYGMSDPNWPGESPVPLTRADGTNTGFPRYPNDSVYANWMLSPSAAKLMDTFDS
Procedure, shortened: (§1)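 Degradation quantified by HiBiT lytic luminescence in 293T cells expressing tagged WT or G810R RET kinase domain after 6 h dosing up to 10 μM; DC50 and Emax fitted.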

[2] = molecular target: T2, RET(KD: 658-1114 G810R) (Homo sapiens, UniProt P07949, G810R); assay: HiBiT-Degradation, RET G810R degradation assay (Nano-Glo HiBiT Lytic), 293T.165 cells; type: cell-based; conditions: for Emax / DC50: 6.0 hours
T2 construct: 658-1114; expressed in transfected cells; host or cells: 293T.165 (293T cells, generated in-house)
T2 sequence (P07949 658-1114 G810R): T1 sequence (P07949 658-1114) with G153R
Procedure, shortened: as §1

[3] = % remaining protein, read-out: 293T.165 RET(KD: 658-1114 G810R) 6.0 hours (Emax)
[4] = half-maximal degradation concentration, read-out: 293T.165 RET(KD: 658-1114 G810R) 6.0 hours (DC50)
[5] = % remaining protein, read-out: 293T.144 RET (658-1114) 6.0 hours (Emax)
[6] = half-maximal degradation concentration, read-out: 293T.144 RET (658-1114) 6.0 hours (DC50)
[7] = HiBiT-Degradation, read-out: 293T.144 RET (658-1114) 6.0 hours (DC50)
[8] = HiBiT-Degradation, read-out: 293T.144 RET (658-1114) 6.0 hours (Emax)
[9] = HiBiT-Degradation, read-out: 293T.165 RET(KD: 658-1114 G810R) 6.0 hours (DC50)

Compound | HiBiT-Degradation 293T.144 RET (658-1114) 6.0 hours (IP) [nM] ([1]; RET wild-type) | DC50 ([1]; RET wild-type, read-out: HiBiT-Degradation 293T.144 RET (658-1114) 6.0 hours (DC50)) [µM] | Emax ([1]; RET wild-type, read-out: HiBiT-Degradation 293T.144 RET (658-1114) 6.0 hours (Emax)) [%] | Emax [2, 3] [%] | DC50 [2, 4] [µM] | HiBiT-Degradation 293T.165 RET(KD: 658-1114 G810R) 6.0 hours (IP) [nM] ([2]; RET G810R) | DC50 ([2]; RET G810R, read-out: HiBiT-Degradation 293T.165 RET(KD: 658-1114 G810R) 6.0 hours (DC50)) [µM] | Emax ([2]; RET G810R, read-out: HiBiT-Degradation 293T.165 RET(KD: 658-1114 G810R) 6.0 hours (Emax)) [%] | 293T.144 RET (658-1114) 6.0 hours (IP) [nM] [1] | Emax [1, 5] [%] | DC50 [1, 6] [µM] | 293T.165 RET(KD: 658-1114 G810R) 6.0 hours (IP) [nM] [2] | 293T.144 RET (658-1114) 6.0 hours (IP) [nM] ([1]; HiBiT-Degradation) | DC50 [1, 7] [µM] | Emax [1, 8] [%] | 293T.165 RET(KD: 658-1114 G810R) 6.0 hours (Emax) ([2]; HiBiT-Degradation) | 293T.165 RET(KD: 658-1114 G810R) 6.0 hours (IP) [nM] ([2]; HiBiT-Degradation) | DC50 [2, 9] [µM]
COCC1(Cc2ccccn2)CCN(c2ccc(-c3nc(-c4cnn(C5CCN(C(=O)CN6CCC(c7ccc(NC8CCC(=O)NC8=O)cc7F)CC6)CC5)c4)cn4ncc(C#N)c34)cn2)CC1 (stereo not shown) [Compound 78, 6-[1-[1-[2-[4-[4-[(2,6-dioxo-3-piperidyl)amino]-2-fluoro-phenyl]-1-piperidyl]acetyl]-4-piperidyl]pyrazol-4-yl]-4-[6-[4-(methoxymethyl)-4-(2-pyridylmethyl)-1-piperidyl]-3-pyridyl]pyrazolo[1,5-a]pyrazine-3-carbonitrile] | ++++ (< 50 nM = ++++) | < 0.05 | < 30 | < 30 | < 0.1 | ++++ (< 50 nM = ++++) | < 0.1 | < 30 | – | – | – | – | – | – | – | – | – | –
COc1ccc(CC2(O)CCN(c3ccc(-c4nc(-c5cnn([C@H]6CC[C@H](N7CCN(c8cc(OC)c(NC9CCC(=O)NC9=O)cc8F)CC7)CC6)c5)cn5ncc(C#N)c45)cn3)CC2)nc1 (stereo partly shown) [Compound 215, 6-[1-[4-[4-[4-[(2,6-dioxo-3-piperidyl)amino]-2-fluoro-5-methoxy-phenyl]piperazin-1-yl]cyclohexyl]pyrazol-4-yl]-4-[6-[4-hydroxy-4-[(5-methoxy-2-pyridyl)methyl]-1-piperidyl]-3-pyridyl]pyrazolo[1,5-a]pyrazine-3-carbonitrile] | – | – | – | < 30 | < 0.05 | – | – | – | ++++ (<50 nM = ++++) | < 30 | < 0.05 | ++++ (<50 nM = ++++) | – | – | – | – | – | –
COc1ccc(CN2C3COCC2CN(c2ccc(-c4nc(-c5cnn([C@H]6CC[C@H](N7CCN(c8cc(F)c(NC9CCC(=O)NC9=O)cc8F)CC7)CC6)c5)cn5ncc(C#N)c45)cn2)C3)cn1 (relative stereo) [Compound 162, 6-[1-[4-[4-[4-[(2,6-dioxo-3-piperidyl)amino]-2,5-difluoro-phenyl]piperazin-1-yl]cyclohexyl]pyrazol-4-yl]-4-[6-[9-[(6-methoxy-3-pyridyl)methyl]-3-oxa-7,9-diazabicyclo[3.3.1]nonan-7-yl]-3-pyridyl]pyrazolo[1,5-a]pyrazine-3-carbonitrile] | – | – | – | < 30 | < 0.1 | – | – | – | ++++ (<50 nM = ++++) | < 30 | < 0.05 | ++++ (<50 nM = ++++) | – | – | – | – | – | –
CCC1(C(=O)NC(C)C)CCN(c2ccc(-c3nc(-c4cnn(C5CCN(C(=O)CN6C7CCC6CC(c6ccc(NC8CCC(=O)NC8=O)cc6)C7)CC5)c4)cn4ncc(C#N)c34)cn2)CC1 (stereo not shown) [Compound 9, 1-[5-[3-cyano-6-[1-[1-[2-[3-[4-[(2,6-dioxo-3-piperidyl)amino]phenyl]-8-azabicyclo[3.2.1]octan-8-yl]acetyl]-4-piperidyl]pyrazol-4-yl]pyrazolo[1,5-a]pyrazin-4-yl]-2-pyridyl]-4-ethyl-N-isopropyl-piperidine-4-carboxamide] | – | – | – | < 30 | < 0.1 | – | – | – | – | – | – | – | ++++ (< 50 nM = ++++) | < 0.05 | < 30 | ++++ (< 30% = ++++) | ++++ (< 50 nM = ++++) | < 0.1
N#Cc1cnn2cc(-c3cnn([C@H]4CC[C@@H](N5CCN(c6ccc(N[C@H]7CCC(=O)NC7=O)cc6F)CC5)CC4)c3)nc(-c3ccc(N4CC5CC(C4)N5C(=O)c4c(F)cccc4F)nc3)c12 (single isomer, unassigned) [Compound 171] | – | – | – | < 30 | < 0.05 | – | – | – | ++++ (<50 nM = ++++) | < 30 | < 0.05 | ++++ (<50 nM = ++++) | – | – | – | – | – | –
N#Cc1cnn2cc(-c3ccc(N4CCN(C(=O)CN5CCC(c6ccc(NC7CCC(=O)NC7=O)cc6)CC5)CC4)cc3)cc(-c3ccc(N4CCOCC4)nc3)c12 (stereo not shown) [Compound 24, 6-(4-(4-(2-(4-(4-((2,6-Dioxopiperidin-3-yl)amino)phenyl)piperidin-1-yl)acetyl)piperazin-1-yl)phenyl)-4-(6-morpholinopyridin-3-yl)pyrazolo[1,5-a]pyridine-3-carbonitrile] | – | – | – | < 50 | < 0.1 | – | – | – | – | – | – | – | ++++ (< 50 nM = ++++) | < 0.05 | < 30 | +++ (<50% = +++) | ++++ (< 50 nM = ++++) | < 0.1
Cn1nc(N2CCC(=O)NC2=O)c2ccc(C3CCN(CC(=O)N4CCN(c5ccc(-c6cc(-c7ccc(N8CCN(Cc9ccccn9)CC8)nc7)c7c(C#N)cnn7c6)cc5)CC4)CC3)cc21 [Compound 65, 6-[4-[4-[2-[4-[3-(2,4-dioxohexahydropyrimidin-1-yl)-1-methyl-indazol-6-yl]-1-piperidyl]acetyl]piperazin-1-yl]phenyl]-4-[6-[4-(2-pyridylmethyl)piperazin-1-yl]-3-pyridyl]pyrazolo[1,5-a]pyridine-3-carbonitrile] | – | – | – | < 50 | < 0.1 | – | – | – | – | – | – | – | ++++ (< 50 nM = ++++) | < 0.05 | < 30 | +++ (<50% = +++) | +++ (<100 nM = +++) | < 0.1
N#Cc1cnn2cc(-c3cnn(C4CCN(C(=O)CN5CCC(c6ccc(NC7CCC(=O)NC7=O)cc6)CC5)CC4)c3)cc(-c3ccc(N4CCN(C(=O)Cc5ccc(F)cn5)CC4)nc3)c12 (stereo not shown) [Compound 15, 6-[1-[1-[2-[4-[4-[(2,6-dioxo-3-piperidyl)amino]phenyl]-1-piperidyl]acetyl]-4-piperidyl]pyrazol-4-yl]-4-[6-[4-[2-(5-fluoro-2-pyridyl)acetyl]piperazin-1-yl]-3-pyridyl]pyrazolo[1,5-a]pyridine-3-carbonitrile formic acid salt] | – | – | – | < 30 | < 0.1 | – | – | – | – | – | – | – | ++++ (< 50 nM = ++++) | < 0.05 | < 30 | ++++ (< 30% = ++++) | ++++ (< 50 nM = ++++) | < 0.1
N#Cc1cnn2cc(-c3cnn([C@H]4CC[C@H](N5CCN(c6c(F)cc(NC7CCC(=O)NC7=O)cc6F)CC5)CC4)c3)nc(-c3ccc(N4CC[C@H](OCc5ccccn5)C4)nc3)c12 (mixture of isomers) [Compound 211, 6-[1-[4-[4-[4-[(2,6-dioxo-3-piperidyl)amino]-2,6-difluoro-phenyl]piperazin-1-yl]cyclohexyl]pyrazol-4-yl]-4-[6-[rac-(3S)-3-(2-pyridylmethoxy)pyrrolidin-1-yl]-3-pyridyl]pyrazolo[1,5-a]pyrazine-3-carbonitrile] | – | – | – | < 30 | < 0.05 | – | – | – | ++++ (<50 nM = ++++) | < 30 | < 0.05 | ++++ (<50 nM = ++++) | – | – | – | – | – | –
